Measurements reported in patent US7381744B1, “Method of treating osteoporosis comprising vacuolar-type (H+)-ATPase-inhibiting compounds” (The United States of America as represented by the …, priority 1999, dated 2008).
pIC50: −log10 of the molar value.

What was measured:
[1] = test system: mammalian vacuolar-type (H+)-ATPase (from chromaffin granule membranes); assay: mammalian vacuolar-type (H+)-ATPase inhibition, side-by-side test; type: biochemical; details: chromaffin granule membranes; side-by-side test
Source text: (§1) The inhibitory data were obtained using the same procedures and biological preparations described in Bowman et al., Proc. Natl. Acad. Sci. USA, 85, 7972-7976 (November 1988).

[2] = test system: vacuolar-type (H+)-ATPase derived from macrophage cells (J774); assay: vacuolar-type (H+)-ATPase inhibition assay, membrane vesicles (J774); type: biochemical; details: bafilomycin-sensitive activity; oligomycin 5 μg/ml and vanadate 1 mM present; 37°, 30 minutes
Protocol: (§2) Inhibition of bafilomycin-sensitive vacuolar-type (H+)-ATPase activity was measured in partially purified membrane vesicle preparations from human osteoclastoma cells (hOc), human renal cortical cells (hK), and macrophage cells (J774). The vesicles were prepared by appropriate adaptations of methods described in Gagliardi et al., J. Med. Chem., 41, 1568-1573 (1998); and Gagliardi et al., J. Med. Chem., 41, 1883-1893 (1998).
(§3) Vacuolar-type (H+)-ATPase assays were performed in the presence of oligomycin (5 μg/ml) and vanadate (1 mM) as inhibitors of F- and P-ATPases, respectively. A […] method was used to quantitate the residual bafilomycin-sensitive vacuolar-type (H+)-ATPase activity (see Chan et al., Anal. Biochem., 157, 375-380 (1986)). The assay measures the release of inorganic phosphate from ATP at 37° during 30 minutes of incubation. The reaction is initiated by the addition of MgSO4 ([…]).

[3] = test system: fungal vacuolar-type (H+)-ATPase (from Neurospora crassa); assay: fungal vacuolar-type (H+)-ATPase inhibition, side-by-side test; type: biochemical
Source text: as §1

[4] = test system: vacuolar-type (H+)-ATPase derived from human kidney cells (hK); assay: vacuolar-type (H+)-ATPase inhibition assay, membrane vesicles (hK); type: biochemical; details: bafilomycin-sensitive activity; oligomycin 5 μg/ml and vanadate 1 mM present; 37°, 30 minutes
Protocol: as §2, §3

[5] = stability in solvents observed during isolation and NMR; type: physicochemical; details: deuterated chloroform
Source text: Therefore, all subsequent attempts at isolation avoided the use of chloroform or exposure of samples to CDCl3, and no further problems with decomposition or loss of bioactivity were encountered. Moreover, there was no indication of any instability of the pure isolated compounds in any of the other common organic solvents employed, nor in aqueous or biological media.
Signals obscured by or unresolved in the first solvent were readily discernible in the second. Consequently, ^1H-^1H COSY, HMQC, and HMBC NMR data were gathered in both solvents. […] From a combination of the HMQC (Table 2) and the COSY spectral data, the partial structures illustrated in FIGS. 5A-5C were generated.

LOX-IMVI = assay: NCI 60 cell-line screen; type: cell-based; details: Homo sapiens, Melanoma, averaged, quadruplicate testing, read-out: negative log10 GI50 (converted)
Source text: (§4) It is the concentration where 100×(T−To)/To=−50=PG. […] Res., 34, 91-109 (1995).

HS-578T = assay: NCI 60 cell-line screen; type: cell-based; details: Homo sapiens, Breast, averaged, quadruplicate testing, read-out: negative log10 GI50 (converted)
Source text: as §4

OVCAR-8 = assay: NCI 60 cell-line screen; type: cell-based; details: Homo sapiens, Ovary, averaged, quadruplicate testing, read-out: negative log10 GI50 (converted)
Source text: as §4

NCI-H460 = assay: NCI 60 cell-line screen; type: cell-based; details: Homo sapiens, Lung, averaged, quadruplicate testing, read-out: negative log10 GI50 (converted)
Source text: as §4

UO-31 = assay: NCI 60 cell-line screen; type: cell-based; details: Homo sapiens, Kidney, averaged, quadruplicate testing, read-out: negative log10 GI50 (converted)
Source text: as §4

OVCAR-4 = assay: NCI 60 cell-line screen; type: cell-based; details: Homo sapiens, Ovary, averaged, quadruplicate testing, read-out: negative log10 GI50 (converted)
Source text: as §4

TK-10 = assay: NCI 60 cell-line screen; type: cell-based; details: Homo sapiens, Kidney, averaged, quadruplicate testing, read-out: negative log10 GI50 (converted)
Source text: as §4

NCI-H522 = assay: NCI 60 cell-line screen; type: cell-based; details: Homo sapiens, Lung, averaged, quadruplicate testing, read-out: negative log10 GI50 (converted)
Source text: as §4

KM12 = assay: NCI 60 cell-line screen; type: cell-based; details: Homo sapiens, Colon, averaged, quadruplicate testing, read-out: negative log10 GI50 (converted)
Source text: as §4

OVCAR-3 = assay: NCI 60 cell-line screen; type: cell-based; details: Homo sapiens, Ovary, averaged, quadruplicate testing, read-out: negative log10 GI50 (converted)
Source text: as §4

SK-MEL-2 = assay: NCI 60 cell-line screen; type: cell-based; details: Homo sapiens, Melanoma, averaged, quadruplicate testing, read-out: negative log10 GI50 (converted)
Source text: as §4

HOP-92 = assay: NCI 60 cell-line screen; type: cell-based; details: Homo sapiens, Lung, averaged, quadruplicate testing, read-out: negative log10 GI50 (converted)
Source text: as §4

A549/ATCC = assay: NCI 60 cell-line screen; type: cell-based; details: Homo sapiens, Lung, averaged, quadruplicate testing, read-out: negative log10 GI50 (converted)
Source text: as §4

SNB-19 = assay: NCI 60 cell-line screen; type: cell-based; details: Homo sapiens, Brain, averaged, quadruplicate testing, read-out: negative log10 GI50 (converted)
Source text: as §4

MCF-7-ADR-RES = assay: NCI 60 cell-line screen; type: cell-based; details: Homo sapiens, Breast, averaged, quadruplicate testing, read-out: negative log10 GI50 (converted)
Source text: as §4

MOLT-4 = assay: NCI 60 cell-line screen; type: cell-based; details: Homo sapiens, Leukemia, averaged, quadruplicate testing, read-out: negative log10 GI50 (converted)
Source text: as §4

OVCAR-5 = assay: NCI 60 cell-line screen; type: cell-based; details: Homo sapiens, Ovary, averaged, quadruplicate testing, read-out: negative log10 GI50 (converted)
Source text: as §4

ACHN = assay: NCI 60 cell-line screen; type: cell-based; details: Homo sapiens, Kidney, averaged, quadruplicate testing, read-out: negative log10 GI50 (converted)
Source text: as §4

PC-3 = assay: NCI 60 cell-line screen; type: cell-based; details: Homo sapiens, Prostate, averaged, quadruplicate testing, read-out: negative log10 GI50 (converted)
Source text: as §4

U251 = assay: NCI 60 cell-line screen; type: cell-based; details: Homo sapiens, U-251, Brain, averaged, quadruplicate testing, read-out: negative log10 GI50 (converted)
Source text: as §4

MCF-7 = assay: NCI 60 cell-line screen; type: cell-based; details: Homo sapiens, MCF7, Breast, averaged, quadruplicate testing, read-out: negative log10 GI50 (converted)
Source text: as §4

NCI-H23 = assay: NCI 60 cell-line screen; type: cell-based; details: Homo sapiens, Lung, averaged, quadruplicate testing, read-out: negative log10 GI50 (converted)
Source text: as §4

SW-620 = assay: NCI 60 cell-line screen; type: cell-based; details: Homo sapiens, Colon, averaged, quadruplicate testing, read-out: negative log10 GI50 (converted)
Source text: as §4

CAKI-1 = assay: NCI 60 cell-line screen; type: cell-based; details: Homo sapiens, Kidney, averaged, quadruplicate testing, read-out: negative log10 GI50 (converted)
Source text: as §4

HCT-116 = assay: NCI 60 cell-line screen; type: cell-based; details: Homo sapiens, Colon, averaged, quadruplicate testing, read-out: negative log10 GI50 (converted)
Source text: as §4

SK-OV-3 = assay: NCI 60 cell-line screen; type: cell-based; details: Homo sapiens, Ovary, averaged, quadruplicate testing, read-out: negative log10 GI50 (converted)
Source text: as §4

HCC-2998 = assay: NCI 60 cell-line screen; type: cell-based; details: Homo sapiens, Colon, averaged, quadruplicate testing, read-out: negative log10 GI50 (converted)
Source text: as §4

**Q.** Which “inhibitory activity against mammalian vacuolar-type (H+)-ATPase” value [1] does the source give for `CC/C=C\C=C/C(=O)N/C=C/CC1CC(O)C(C)C/C=C/Cc2cccc(O)c2C(=O)O1` (centres unmarked) [salicylihalamide A] here?
**A.** The value was “potent inhibitor”.

**Q.** And the pIC50 [2]?
**A.** The pIC50 was 8.55.

**Q.** And the “inhibitory activity against fungal vacuolar-type (H+)-ATPase” value [3]?
**A.** Its value is “little or no inhibitory activity”.

**Q.** What about the pIC50 [4] of the same compound?
**A.** Its pIC50 is 9.52.

**Q.** What about the “stability in CDCl3” value [5] of the same compound?
**A.** Its value is “sensitivity of salicylihalamide A to CDCl3”.

**Q.** What about the GI50 (LOX-IMVI) of the same compound?
**A.** The GI50 was 0.000776 µM.

**Q.** What about the GI50 (HS-578T) of the same compound?
**A.** Its GI50 is 1.41 µM.

**Q.** And the GI50 (OVCAR-8)?
**A.** The GI50 was 0.00372 µM.

**Q.** And the GI50 (NCI-H460)?
**A.** Its GI50 is 0.000977 µM.

**Q.** And the GI50 (UO-31)?
**A.** The GI50 was 0.0049 µM.

**Q.** And the GI50 (OVCAR-4)?
**A.** The GI50 was 5.01 µM.

**Q.** And the GI50 (TK-10)?
**A.** The GI50 was 1.82 µM.

**Q.** And the GI50 (NCI-H522)?
**A.** The GI50 was 0.055 µM.

**Q.** What about the GI50 (KM12) of the same compound?
**A.** Its GI50 is 0.00501 µM.

**Q.** And the GI50 (OVCAR-3)?
**A.** Its GI50 is 0.0933 µM.

**Q.** What about the GI50 (SK-MEL-2) of the same compound?
**A.** Its GI50 is 0.0339 µM.

**Q.** What about the GI50 (HOP-92) of the same compound?
**A.** The GI50 was 0.017 µM.

**Q.** What about the GI50 (A549/ATCC) of the same compound?
**A.** The GI50 was 0.00288 µM.

**Q.** What about the GI50 (SNB-19) of the same compound?
**A.** Its GI50 is 0.339 µM.

**Q.** And the GI50 (MCF-7-ADR-RES)?
**A.** Its GI50 is 0.00851 µM.

**Q.** And the GI50 (MOLT-4)?
**A.** Its GI50 is 0.011 µM.

**Q.** What about the GI50 (OVCAR-5) of the same compound?
**A.** Its GI50 is 0.00776 µM.

**Q.** And the GI50 (ACHN)?
**A.** Its GI50 is 0.00977 µM.

**Q.** And the GI50 (PC-3)?
**A.** The GI50 was 0.0309 µM.

**Q.** What about the GI50 (U251) of the same compound?
**A.** Its GI50 is 0.0269 µM.

**Q.** What about the GI50 (MCF-7) of the same compound?
**A.** Its GI50 is 0.0759 µM.

**Q.** What about the GI50 (NCI-H23) of the same compound?
**A.** The GI50 was 0.282 µM.

**Q.** What about the GI50 (SW-620) of the same compound?
**A.** The GI50 was 0.0288 µM.

**Q.** And the GI50 (CAKI-1)?
**A.** The GI50 was 0.0011 µM.

**Q.** And the GI50 (HCT-116)?
**A.** The GI50 was 0.00182 µM.

**Q.** And the GI50 (SK-OV-3)?
**A.** The GI50 was 2.88 µM.

**Q.** And the GI50 (HCC-2998)?
**A.** The GI50 was 0.182 µM.
